Results as given in US20230348418A1, “ISOINDOLINONE COMPOUNDS” (Monte Rosa Therapeutics, Inc., priority 2021, published 2023).
Read-outs that look alike come from different tables or passages of the source.

Molecular target: T1, Full length wild-type cereblon CRBN (Homo sapiens, UniProt Q96SW2)
T1 construct: Full length wild-type cereblon CRBN (80.0 nM, 10 μL) was incubated in assay buffer
Test: Fluorescence polarization (FP) assay, cereblon binding
Description: Compound activity was monitored in a fluorescence polarization (FP) homogeneous assay using 1-[5-({2-[2-(2-{[2-(2,6-dioxopiperidin-3-yl)-1,3-dioxo-2,3-dihydro-1H-isoindol-4-yl]oxy}acetamido)ethoxy]ethyl}carbamoyl)pentyl]-3,3-dimethyl-2-[(1E,3E)-5-[(2E)-1,3,3-trimethyl-5-sulfo-2,3-dihydro-1H-indol-2-ylidene]penta-1,3-dien-1-yl]-3H-indol-1-ium-5-sulfonate as a fluorescent probe. Unless otherwise stated, all reagents were purchased from Sigma Aldrich. […] Full length wild-type cereblon CRBN (80.0 nM, 10 μL) was incubated in assay buffer containing 20 mM HEPES (pH 8.0), […], 0.5 mM TCEP and 0.05% Tween 20 in the presence or absence of compound (300 nL). Inhibitors were stored as 10 mM DMSO stocks in an inert environment (low humidity, dark, low oxygen, room temperature) using the Storage Pod System. […] Following incubation at room temperature for 30 min, the assay was initiated by dispensing the probe to a final concentration of […] (2.5 nL of a 20 μM stock) using the Echo E5XX. […] The FP signal was subsequently normalized to the no-compound control (i.e., DMSO). Analysis and IC50 values were derived using Dotmatics (Dotmatics UK) software.

[1] = bounds stated in the text lists b2059-b2061, read-out: IC50 value
[2] = cereblon binding, class code, read-out: rFP IC50
[3] = IC50 value, bounds stated in the text lists b2059-b2061
[4] = rFP IC50 [nM], cereblon binding, class code

T1 sequence (Q96SW2 whole entry): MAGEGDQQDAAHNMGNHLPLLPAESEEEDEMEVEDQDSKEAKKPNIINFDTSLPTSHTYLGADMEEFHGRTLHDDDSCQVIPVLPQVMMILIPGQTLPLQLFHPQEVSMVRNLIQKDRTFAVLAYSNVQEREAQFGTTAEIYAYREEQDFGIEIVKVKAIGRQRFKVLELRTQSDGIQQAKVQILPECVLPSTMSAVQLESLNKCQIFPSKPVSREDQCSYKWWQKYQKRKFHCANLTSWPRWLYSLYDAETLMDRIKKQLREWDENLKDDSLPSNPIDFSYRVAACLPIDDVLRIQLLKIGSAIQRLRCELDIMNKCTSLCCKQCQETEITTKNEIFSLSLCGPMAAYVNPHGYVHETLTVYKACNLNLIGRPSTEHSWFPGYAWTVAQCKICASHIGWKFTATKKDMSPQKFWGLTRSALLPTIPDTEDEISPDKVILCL

Molecule `O=C1CCC(N2Cc3ccc(COC(=O)Nc4ccc5c(c4)OCC5)cc3C2=O)C(=O)N1` (stereo not drawn) [Compound 18] has an IC50 [1] of under 1700 nM and an IC50 [2] of 500 to 1100 nM.
With `O=C1CCC(N2Cc3ccc(COC(=O)Nc4ccc(-c5ccccc5F)nc4)cc3C2=O)C(=O)N1` (stereo not drawn) [Compound 84] the IC50 [1] was under 1100 nM.
In the case of `C[C@H]1CCCN1c1ccc(NC(=O)OCc2ccc3c(c2)C(=O)N(C2CCC(=O)NC2=O)C3)cn1` (stereo partly drawn) [Compound 156, (2-(2,6-dioxopiperidin-3-yl)-3-oxoisoindolin-5-yl)methyl (6-((S)-2-methylpyrrolidin-1-yl)pyridin-3-yl)carbamate], the IC50 [1] is reported as under 1100 nM.
Molecule `O=C1CCC(N2Cc3ccc(COC(=O)Nc4ccc(C5CC5)cc4)cc3C2=O)C(=O)N1` (stereo not drawn) [Compound 39] has an IC50 [1] of under 1700 nM and an IC50 [2] of 500 to 1100 nM.
With `O=C1CCC(N2Cc3ccc(COC(=O)Nc4cc(CN5CCOCC5)cc(OC(F)F)c4)cc3C2=O)C(=O)N1` (stereo not drawn) [Compound 95] the IC50 [1] was under 1700 nM and the IC50 [2] was 1100 to 1700 nM.
`C[C@@H]1CCCN1c1ccc(NC(=O)OCc2ccc3c(c2)C(=O)N(C2CCC(=O)NC2=O)C3)cn1` (stereo partly drawn) [Compound 157, (2-(2,6-dioxopiperidin-3-yl)-3-oxoisoindolin-5-yl)methyl (6-((R)-2-methylpyrrolidin-1-yl)pyridin-3-yl)carbamate] showed an IC50 [1] of under 1100 nM.
Work on `Cc1ncc(NC(=O)OCc2ccc3c(c2)C(=O)N(C2CCC(=O)NC2=O)C3)cc1OC(F)(F)F` (stereo not drawn) [Compound 91] yielded an IC50 [1] of under 1700 nM and an IC50 [2] of 500 to 1100 nM.
`Cc1ccc(NC(=O)OCc2ccc3c(c2)C(=O)N(C2CCC(=O)NC2=O)C3)cc1C` (stereo not drawn) [Compound 129] gave an IC50 [3] of under 1100 nM.
For `CC1(c2ccc(NC(=O)OCc3ccc4c(c3)C(=O)N(C3CCC(=O)NC3=O)C4)cc2)COC1` (stereo not drawn) [Compound 62], the IC50 [1] was under 1700 nM and the IC50 [2] was 500 to 1100 nM.
Molecule `CC(C)(C)c1cc(NC(=O)OCc2ccc3c(c2)C(=O)N(C2CCC(=O)NC2=O)C3)ccn1` (stereo not drawn) [Compound 114] has an IC50 [3] of under 1100 nM.
`O=C1CCC(N2Cc3ccc(COC(=O)Nc4cc(OC(F)(F)F)ccc4F)cc3C2=O)C(=O)N1` (stereo not drawn) [Compound 145, (2-(2,6-dioxopiperidin-3-yl)-3-oxoisoindolin-5-yl)methyl(2-fluoro-5-(trifluoromethoxy)phenyl)carbamate] gave an IC50 (IC50 value) of under 1100 nM and an IC50 (rFP IC50 [nM]) of 500 to 1100 nM.
`CCc1cc(NC(=O)OCc2ccc3c(c2)C(=O)N(C2CCC(=O)NC2=O)C3)cnc1C` (stereo not drawn) [Compound 55] gave an IC50 [1] of under 1700 nM and an IC50 [2] of 500 to 1100 nM.
`Cc1cc(F)c(NC(=O)OCc2ccc3c(c2)C(=O)N(C2CCC(=O)NC2=O)C3)cc1Cl` (stereo not drawn) [Compound 141, (2-(2,6-dioxopiperidin-3-yl)-3-oxoisoindolin-5-yl)methyl (5-chloro-2-fluoro-4-methylphenyl)carbamate] gave an IC50 [1] of under 1100 nM and an IC50 [2] of 500 to 1100 nM.
With `O=C1CCC(N2Cc3ccc(COC(=O)NC4CCN(c5ccccn5)CC4)cc3C2=O)C(=O)N1` (stereo not drawn) [Compound 35] the IC50 [1] was under 1100 nM.
For `O=C1CCC(N2Cc3ccc(COC(=O)Nc4ccc(C5CCC5)nc4)cc3C2=O)C(=O)N1` (stereo not drawn) [Compound 105], the IC50 [1] was under 1700 nM and the IC50 [2] was 500 to 1100 nM.
`CC(NC(=O)OCc1ccc2c(c1)C(=O)N(C1CCC(=O)NC1=O)C2)c1ccccc1` (stereo not drawn) [Compound 102] gave an IC50 [1] of under 1700 nM and an IC50 [2] of 500 to 1100 nM.
For `Cc1cc(NC(=O)OCc2ccc3c(c2)C(=O)N(C2CCC(=O)NC2=O)C3)cnc1-c1ccccc1` (stereo not drawn) [Compound 88], the IC50 [1] was under 1700 nM and the IC50 [2] was 500 to 1100 nM.
`O=C1CCC(N2Cc3ccc(COC(=O)Nc4cc(F)cc(Cl)c4)cc3C2=O)C(=O)N1` (stereo not drawn) [Compound 12] gave an IC50 [1] of under 1700 nM and an IC50 [2] of 1100 to 1700 nM.
Work on `O=C1CCC(N2Cc3ccc(COC(=O)Nc4ccc(C5COC5)cc4)cc3C2=O)C(=O)N1` (stereo not drawn) [Compound 81] yielded an IC50 [1] of under 1100 nM.
`Cc1cc(C)c(NC(=O)OCc2ccc3c(c2)C(=O)N(C2CCC(=O)NC2=O)C3)cc1Cl` (stereo not drawn) [Compound 123, (2-(2,6-dioxopiperidin-3-yl)-3-oxoisoindolin-5-yl) methyl (5-chloro-2,4-dimethylphenyl)carbamate] gave an IC50 [1] of under 1100 nM and an IC50 [2] of 500 to 1100 nM.
`Cc1c(F)cc(NC(=O)OCc2ccc3c(c2)C(=O)N(C2CCC(=O)NC2=O)C3)cc1F` (stereo not drawn) [Compound 127, (2-(2,6-dioxopiperidin-3-yl)-3-oxoisoindolin-5-yl)methyl (3,5-difluoro-4-methylphenyl)carbamate] was tested, and the IC50 [1] was under 1700 nM and the IC50 [2] was 1100 to 1700 nM.
For `O=C1CCC(N2Cc3ccc(COC(=O)Nc4ccc5c(c4)CCC5)cc3C2=O)C(=O)N1` (stereo not drawn) [Compound 56], the IC50 [1] was under 1700 nM and the IC50 [2] was 1100 to 1700 nM.
`O=C1CCC(N2Cc3ccc(COC(=O)NC4COC(c5ccccc5)OC4)cc3C2=O)C(=O)N1` (stereo not drawn) [Compound 130] was tested, and the IC50 [3] was under 1100 nM and the IC50 [4] was 500 to 1100 nM.
For `CCOc1cc(NC(=O)OCc2ccc3c(c2)C(=O)N(C2CCC(=O)NC2=O)C3)ccc1C` (stereo not drawn) [Compound 33], the IC50 [1] was under 500 nM and the IC50 [2] was 500 to 1100 nM.
With `O=C1CCC(N2Cc3ccc(COC(=O)Nc4cc(F)c(F)c(Cl)c4)cc3C2=O)C(=O)N1` (stereo not drawn) [Compound 132] the IC50 [3] was under 1100 nM and the IC50 [4] was 500 to 1100 nM.
For `O=C1CCC(N2Cc3ccc(COC(=O)N4CCCC4)cc3C2=O)C(=O)N1` (stereo not drawn) [Compound 26], the IC50 [1] was under 1700 nM and the IC50 [2] was 500 to 1100 nM.
`CCc1cc(NC(=O)OCc2ccc3c(c2)C(=O)N(C2CCC(=O)NC2=O)C3)cc(C)n1` (stereo not drawn) [Compound 71] was tested, and the IC50 [1] was under 1700 nM and the IC50 [2] was 1100 to 1700 nM.
With `CCc1nscc1NC(=O)OCc1ccc2c(c1)C(=O)N(C1CCC(=O)NC1=O)C2` (stereo not drawn) [Compound 147] the IC50 [1] was under 1100 nM and the IC50 [2] was 500 to 1100 nM.
For `Cc1c(Cl)cc(NC(=O)OCc2ccc3c(c2)C(=O)N(C2CCC(=O)NC2=O)C3)cc1OC1CCN(C)C1` (stereo not drawn) [Compound 68], the IC50 [1] was under 1700 nM and the IC50 [2] was 500 to 1100 nM.
Molecule `O=C1CCC(N2Cc3ccc(COC(=O)N4CCCCC4)cc3C2=O)C(=O)N1` (stereo not drawn) [Compound 23] has an IC50 [1] of under 1100 nM.
`N#Cc1cc(Cl)cc(NC(=O)OCc2ccc3c(c2)C(=O)N(C2CCC(=O)NC2=O)C3)c1` (stereo not drawn) [Compound 111, (2-(2,6-dioxopiperidin-3-yl)-3-oxoisoindolin-5-yl)methyl (3-chloro-5-cyanophenyl)carbamate] showed an IC50 [1] of under 1100 nM.
With `COc1cc(NC(=O)OCc2ccc3c(c2)C(=O)N(C2CCC(=O)NC2=O)C3)cnc1-c1ccccc1` (stereo not drawn) [Compound 90] the IC50 [1] was under 1700 nM and the IC50 [2] was 1100 to 1700 nM.
`Cc1cc(C)c(F)c(NC(=O)OCc2ccc3c(c2)C(=O)N(C2CCC(=O)NC2=O)C3)c1` (stereo not drawn) [Compound 122, (2-(2,6-dioxopiperidin-3-yl)-3-oxoisoindolin-5-yl)methyl (2-fluoro-3,5-dimethylphenyl)carbamate] showed an IC50 [1] of under 1100 nM.
With `O=C1CCC(N2Cc3ccc(COC(=O)Nc4cnc5c(c4)CCC5)cc3C2=O)C(=O)N1` (stereo not drawn) [Compound 53] the IC50 [1] was under 1700 nM and the IC50 [2] was 500 to 1100 nM.
`O=C1CCC(N2Cc3ccc(COC(=O)N4CCC(Oc5ccccc5)C4)cc3C2=O)C(=O)N1` (stereo not drawn) [Compound 30] was tested, and the IC50 [1] was under 1100 nM.
`O=C1CCC(N2Cc3ccc(COC(=O)Nc4ccc(N5CCCC(F)(F)C5)nc4)cc3C2=O)C(=O)N1` (stereo not drawn) [Compound 73] was tested, and the IC50 [1] was under 1100 nM.
`Cc1cc(NC(=O)OCc2ccc3c(c2)C(=O)N(C2CCC(=O)NC2=O)C3)cc(F)c1C` (stereo not drawn) [Compound 117] showed an IC50 [3] of under 1100 nM and an IC50 [4] of 500 to 1100 nM.
With `Cc1ccc(NC(=O)OCc2ccc3c(c2)C(=O)N(C2CCC(=O)NC2=O)C3)cc1OC(F)F` (stereo not drawn) [Compound 24] the IC50 [1] was under 1700 nM and the IC50 [2] was 500 to 1100 nM.
`O=C1CCC(N2Cc3ccc(COC(=O)Nc4cccc(OC(F)F)c4)cc3C2=O)C(=O)N1` (stereo not drawn) [Compound 5] gave an IC50 [1] of under 1700 nM and an IC50 [2] of 1100 to 1700 nM.
With `CCc1cc(NC(=O)OCc2ccc3c(c2)C(=O)N(C2CCC(=O)NC2=O)C3)ccn1` (stereo not drawn) [Compound 63] the IC50 [1] was under 1100 nM.
Work on `O=C1CCC(N2Cc3ccc(COC(=O)Nc4ccc5c(c4)CC(F)(F)O5)cc3C2=O)C(=O)N1` (stereo not drawn) [Compound 113] yielded an IC50 [3] of under 1100 nM.
`COc1cc(NC(=O)OCc2ccc3c(c2)C(=O)N(C2CCC(=O)NC2=O)C3)cnc1C` (stereo not drawn) [Compound 51] showed an IC50 [1] of under 1700 nM and an IC50 [2] of 500 to 1100 nM.
`O=C1CCC(N2Cc3ccc(COC(=O)Nc4cnc5c(c4)COCC5)cc3C2=O)C(=O)N1` (stereo not drawn) [Compound 54] was tested, and the IC50 [1] was under 1100 nM.
With `O=C1CCC(N2Cc3ccc(COC(=O)Nc4cnc(N5CCCCC5)c(F)c4)cc3C2=O)C(=O)N1` (stereo not drawn) [Compound 72] the IC50 [1] was under 1700 nM and the IC50 [2] was 500 to 1100 nM.
Molecule `CC1(c2ccc(NC(=O)OCc3ccc4c(c3)C(=O)N(C3CCC(=O)NC3=O)C4)cn2)CC1` (stereo not drawn) [Compound 152, (2-(2,6-dioxopiperidin-3-yl)-3-oxoisoindolin-5-yl)methyl (6-(1-methylcyclopropyl)pyridin-3-yl)carbamate] has an IC50 [1] of under 1100 nM.
`Cc1ccc(NC(=O)OCc2ccc3c(c2)C(=O)N(C2CCC(=O)NC2=O)C3)cc1F` (stereo not drawn) [Compound 133, (2-(2,6-dioxopiperidin-3-yl)-3-oxoisoindolin-5-yl)methyl (3-fluoro-4-methylphenyl)carbamate] showed an IC50 [1] of under 1100 nM and an IC50 [2] of 500 to 1100 nM.
For `Cc1c(Cl)cc(NC(=O)OCc2ccc3c(c2)C(=O)N(C2CCC(=O)NC2=O)C3)cc1CN1CCOCC1` (stereo not drawn) [Compound 2], the IC50 [1] was under 1700 nM and the IC50 [2] was 500 to 1100 nM.
Molecule `O=C1CCC(N2Cc3ccc(COC(=O)Nc4ccc(N5CCC(F)(F)CC5)nc4)cc3C2=O)C(=O)N1` (stereo not drawn) [Compound 78] has an IC50 [1] of under 1100 nM.
`Cc1cc(F)cc(NC(=O)OCc2ccc3c(c2)C(=O)N(C2CCC(=O)NC2=O)C3)c1` (stereo not drawn) [Compound 146, (2-(2,6-dioxopiperidin-3-yl)-3-oxoisoindolin-5-yl)methyl (3-fluoro-5-methylphenyl) carbamate] gave an IC50 [1] of under 1700 nM and an IC50 [2] of 1100 to 1700 nM.
